Data from patent US6111145A, “Cyclopentenone derivative” (Takara Shuzo Company, priority 1997, dated 2000).

Key:
[1] = system: Promyelocytic leukemia cell strain HL-60 (ATCC CCL-240); assay: Growth of HL-60 cells, MTT method with microscopic observation; format: cell-based, human; settings: HL-60, at the concentration completely suppressing growth
Description: (1) A 1.22, 2.44, 4.88, 9.77, 19.5, 39.1, 78.1, 156, 313, 625, 1250, 2500, 5000 or 10000 μg/ml solution (10 μl) (in 70% aqueous solution of ethanol) of 4-benzylcyclopentenone ether, 5-benzylcyclopentenone ether or 4,5-dibenzylcyclopentenone ether or a 70% aqueous solution of ethanol as a control (10 μl) was added to each well of a 96-well microtiter plate followed by drying with air. Promyelocytic leukemia cell strain HL-60 (ATCC CCL-240) was suspended in an RPMI 1640 medium containing 10% of fetal calf serum to an extent of 1×10^5 cells/ml, each 100 μl thereof was poured into each well of the above microtiter plate and incubated at 37° C. for 48 hours in the presence of 5% of CO2. Incubation was continued for four hours more after addition of 10 μl of a solution (5 mg/ml) of 3-(4,5-dimethylthiazol-2-yl)-2,5-diphenyltetrazolium bromide (MTT; manufactured by Sigma) in a phosphate-buffered aqueous saline solution and then the state of growth of the cells was observed under a microscope. Further, 100 μl of 2-propanol containing 0.04N HCl was added thereto followed by well stirring and the absorbance at 590 nm was measured.
(2) Influence of 4-tert-butylcyclopentenone ether, 5-tert-butylcyclopentenone ether or 4,5-di-tert-butylcyclopentenone ether to the growth of HL-60 cells was measured by the same method as in Example 2-(1).

[2] = system: carrageenan-induced pedal edema; assay: Carrageenan-induced pedal edema model; format: in vivo; settings: Lewis rats, oral 1 or 10 mg/kg in olive oil 0.5 hour before carrageenan, paw volume after three hours
Description: Lewis rats (male; nine weeks age; body weight: about 250 g) were purchased from Seakku-Yoshitomi and the inflammation models such as carrageenan-induced pedal edema model (a model of rheumatoid arthritis) were prepared as follows whereby the tested substances were evaluated.
Thus, 4-tert-butylcyclopentenone ether or 4,5-di-tert-butylcyclopentenone ether in various concentrations by dissolving in olive oil (manufactured by Nacalai Tesque) was orally administered at the dose of 1 mg/10 ml/kg or 10 mg/10 ml/kg to rats which were fasted for 18 hours before initiation of the experiment.
After 0.5 hour from administration of these test drugs, 100 μl/rat of 1% suspension of carrageenan (manufactured by Wako) in a physiologically saline solution (manufactured by Otsuka Pharmaceutical) was injected to right paw to induce pedal edema. After three hours from the carrageenan injection, volume of right paw of the rat was measured by a pedal volume measuring device (manufactured by UGO BASILE). Incidentally, the measured value was expressed by calculating the increasing rate from the right paw volume of each rat measured before the carrageenan administration.

[3] = biological target: topoisomerase II (Homo sapiens, UniProt P11388); assay: Topoisomerase II inhibition, pBR322 DNA relaxation by agarose gel electrophoresis; format: biochemical
topoisomerase II, sequence (P11388 whole entry): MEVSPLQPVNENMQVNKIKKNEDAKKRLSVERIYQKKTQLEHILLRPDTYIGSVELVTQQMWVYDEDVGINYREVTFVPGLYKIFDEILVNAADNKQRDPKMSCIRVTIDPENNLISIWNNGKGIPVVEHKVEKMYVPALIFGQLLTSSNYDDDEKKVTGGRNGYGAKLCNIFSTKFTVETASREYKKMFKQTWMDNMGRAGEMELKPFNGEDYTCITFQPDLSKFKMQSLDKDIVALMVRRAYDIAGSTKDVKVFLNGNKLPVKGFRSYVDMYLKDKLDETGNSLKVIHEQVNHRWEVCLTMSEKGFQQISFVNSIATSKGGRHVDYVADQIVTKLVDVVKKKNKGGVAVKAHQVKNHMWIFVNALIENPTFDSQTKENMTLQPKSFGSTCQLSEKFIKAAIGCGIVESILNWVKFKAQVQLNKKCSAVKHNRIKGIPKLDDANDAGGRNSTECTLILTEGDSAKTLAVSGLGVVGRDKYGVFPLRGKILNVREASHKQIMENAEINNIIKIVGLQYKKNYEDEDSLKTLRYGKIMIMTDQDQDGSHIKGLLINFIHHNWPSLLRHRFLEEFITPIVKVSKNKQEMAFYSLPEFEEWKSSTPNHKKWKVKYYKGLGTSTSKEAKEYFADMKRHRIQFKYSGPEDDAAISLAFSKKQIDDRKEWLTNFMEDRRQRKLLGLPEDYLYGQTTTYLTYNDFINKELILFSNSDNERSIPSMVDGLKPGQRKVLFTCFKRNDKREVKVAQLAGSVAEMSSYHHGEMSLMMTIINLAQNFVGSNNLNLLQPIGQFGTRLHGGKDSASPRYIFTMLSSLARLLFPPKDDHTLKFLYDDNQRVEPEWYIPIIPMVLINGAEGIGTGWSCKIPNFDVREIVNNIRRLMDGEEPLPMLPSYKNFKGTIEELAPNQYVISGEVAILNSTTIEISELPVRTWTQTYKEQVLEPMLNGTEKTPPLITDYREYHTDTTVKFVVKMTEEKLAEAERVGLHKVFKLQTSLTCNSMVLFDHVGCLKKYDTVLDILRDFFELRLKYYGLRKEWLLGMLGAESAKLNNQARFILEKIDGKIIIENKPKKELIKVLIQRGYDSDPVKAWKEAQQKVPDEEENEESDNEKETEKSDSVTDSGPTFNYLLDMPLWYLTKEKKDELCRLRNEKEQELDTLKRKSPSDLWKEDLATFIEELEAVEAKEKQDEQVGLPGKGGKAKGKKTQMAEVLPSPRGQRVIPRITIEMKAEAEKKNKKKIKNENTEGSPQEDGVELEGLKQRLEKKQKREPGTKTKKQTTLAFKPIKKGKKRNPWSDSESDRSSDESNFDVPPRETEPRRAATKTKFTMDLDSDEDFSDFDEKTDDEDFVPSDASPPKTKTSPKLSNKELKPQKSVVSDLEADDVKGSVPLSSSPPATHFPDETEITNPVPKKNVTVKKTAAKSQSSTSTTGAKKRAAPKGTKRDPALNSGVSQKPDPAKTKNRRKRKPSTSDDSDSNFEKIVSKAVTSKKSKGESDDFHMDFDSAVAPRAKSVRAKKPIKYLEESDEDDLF
Description: (1) One μl of 0.25 μg/μl pBR322 DNA (manufactured by Takara Shuzo) was added to a mixture of 2 μl of topoisomerase II (manufactured by TopoGEN, 2 units/μl), 2 μl of a buffer with a ten-fold diluted concentration [0.5M Tris-HCl (pH 8.0), 1.2M KCl, 0.1M MgCl2, 5 mM adenosine triphosphate and 5 mM dithiothreitol], 2 μl of 0.1% bovine serum albumin (manufactured by Takara Shuzo), 11 μl of distilled water and 2 μl of distilled water (a control) or 4,5-di-tert-butylcyclopentenone ether prepared into various concentrations by water and made to react at 37° C. After the reaction for 30 minutes, the reaction was stopped by adding 2 μl aqueous solution of 1% sodium dodecylsulfate, 50% glycerol and 0.02% Bromophenol Blue.
The above reaction solution (20 μl) was applied to 1% agarose gel prepared from agarose L03 (manufactured by Takara Shuzo) and TAE buffer [40 mM Tris, 5mM sodium acetate and 1 mM disodium ethylenediaminetetraacetate (EDTA); adjusted to pH 7.8 with acetic acid] and electrophoresis was conducted in the TAE buffer. After the electrophoresis, the gel was dipped in an aqueous solution of 1 μg/ml ethidium bromide and irradiated with ultraviolet ray to observe the electrophoretic pattern of DNA.

[4] = set-up: species or system mice; settings: mouse, in vivo, 300 mg/kg

With `O=C1C=C[C@@H](OCc2ccccc2)[C@@H]1O` (relative stereo) [4-benzylcyclopentenone ether] the “formation of apoptic body” value [1] was “Formation of apoptic body was noted”.

With `O=C1C=C[C@@H](OCc2ccccc2)[C@@H]1OCc1ccccc1` (relative stereo) [4,5-dibenzylcyclopentenone ether] the “formation of apoptic body” value [1] was “Formation of apoptic body was noted”.

In the case of `CC(C)(C)O[C@@H]1C(=O)C=C[C@H]1OC(C)(C)C` (relative stereo) [4,5-di-tert-butylcyclopentenone ether], the “suppressing action to edema induced by carrageenan (increasing rate of pedal edema)” value [2] is reported as “showed an suppressing action to edema”, the “superhelix DNA remaining” value ([3]; 250 μM in the reaction solution) is reported as “the superhelix DNA remained to an medium extent” and the “superhelix DNA remaining” value ([3]; 500 μM in the reaction solution) is reported as “most of the superhelix DNA remained”. The “superhelix DNA remaining” value ([3]; 1000 μM in the reaction solution) was “the superhelix DNA did not decrease at all”, the “concentration in the reaction solution showing topoisomerase suppressing activity” value ([3]; pBR322 DNA, 37° C., 30 minutes) was “not less than 250 μM” and the “death after single oral administration” value [4] was “no dead case was noted”.

In the case of `O=C1C=C[C@@H](O)[C@@H]1OCc1ccccc1` (relative stereo) [5-benzylcyclopentenone ether], the “formation of apoptic body” value [1] is reported as “Formation of apoptic body was noted”.

With `CC(C)(C)O[C@@H]1C=CC(=O)[C@H]1O` (relative stereo) [4-tert-butylcyclopentenone ether] the “suppressing action to edema induced by carrageenan (increasing rate of pedal edema)” value [2] was “showed an suppressing action to edema” and the “death after single oral administration” value [4] was “no dead case was noted”.
